Reference: patent US11555042B2, “Macrocyclic compounds as TRK kinases inhibitors” (FOCHON BIOSCIENCES, LTD., priority 2018, dated 2023)

How the values were obtained:
Assay type in all cases: cell-based
KM12 cells = KM12 cells proliferation inhibition (MTS), mechanism-based assay for TRK; conditions: Homo sapiens, KM12, 72 h
Summary of the method: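 KM12 cells (1000 cells/well, RPMI-1640 plus 10% FBS) were treated with compounds at 1.5–10000 nM final for 72 h at 37 °C. Viability was measured by MTS for 2 h, stopped with SDS, with absorbance read at 490 nm (650 nm reference). IC50 was calculated from the readings.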

ETV6-TRKC = molecular target: T1, ETV6-TRKC (Homo sapiens, UniProt Q16288); assay: Engineered Ba/F3 cell proliferation inhibition (MTS), ETV6-TRKC; conditions: 72 h
T1 construct: fused on or other part: P41212 (Transcription factor ETV6)
From the text: (§1) MTS testing kit was purchased from Promega (Madison, Wis., USA). The RPMI-1640, Fetal bovine serum and Penicillin-Streptomycin were purchased from Gibco (San Francisco, Calif., USA). Dimethyl sulfoxide (DMSO) and Puromycin were purchased from Sigma (St. Louis., Mo., USA). Mouse interleukin-3 (IL-3) was purchased from Cell signaling Technology (Boston, Mass., USA).
(§2) To investigate whether a compound is able to inhibit the activity of TRK fusion mutation in cells, a mechanism-based assay using engineered Ba/F3 cell lines stably overexpressing oncogenic rearrangement or gene mutation of TRK (TPM3-TRKA, TPM3-TRKA-G595R, AFAP1-TRKB, ETV6-TRKC and ETV6-TRKC-G623R) were developed. In this assay, inhibition of TRK fusion mutation was detected by the cell proliferation inhibition of engineered Ba/F3 cells. Engineered Ba/F3 cells were cultured in culture flasks to 40-80% confluence in RPMI-1640 supplemented with 10% fetal bovine serum, 2 ug/mL puromycin. Cells were collected and plated onto 96-well plates at desired cell density (Ba/F3-TPM3-TRKA: 3×10^4/mL, Ba/F3-TPM3-TRKA-G595R: 1×10^5/mL, Ba/F3-AFAP1-TRKB: 1×10^5/mL, Ba/F3-ETV6-TRKC: 3×10^4/mL, Ba/F3-ETV6-TRKC-G623R: 3×10^4/mL). Plates were incubated at 37° C., with 5% CO2 for 4 h. Compounds were then added to the plates with the final compound concentrations of 10000, 3333, 1111, […], 123, 41.2, 13.7, 4.6 and 1.5 nM. Plates were incubated at 37° C., with 5% CO2 for 72 h. A mixture of 20 μl MTS/100 μl medium were added to each well and the plates were incubated at 37° C., with 5% CO2 for exactly 2 h. The reaction was stopped by adding 25 μl of 10% SDS per well. The absorbance was measured at 490 nm and 650 nm (reference wavelength). IC50 was calculated using GraphPad Prism 5.0 software.

TPM3-TRKA = molecular target: T2, TPM3-TRKA (Homo sapiens, UniProt P04629); assay: Engineered Ba/F3 cell proliferation inhibition (MTS), TPM3-TRKA; conditions: 72 h
T2 construct: TPM3 (tropomyosin alpha-3, P06753) fusion partner; expressed in transfected cells; host or cells: Ba/F3; the other entry of the earlier key: TPM3 (P06753, Tropomyosin alpha-3 chain)
From the text: as §1, §2

TPM3-TRKA-G595R = molecular target: T3, TPM3-TRKA-G595R (Homo sapiens, UniProt P04629, G595R); assay: Engineered Ba/F3 cell proliferation inhibition (MTS), TPM3-TRKA-G595R; conditions: 72 h
T3 construct: TPM3 (tropomyosin alpha-3, P06753) fusion partner; expressed in transfected cells; host or cells: Ba/F3; the other entry of the earlier key: TPM3 (P06753, Tropomyosin alpha-3 chain)
From the text: as §1, §2

ETV6-TRKC-G623R = molecular target: T4, ETV6-TRKC-G623R (Homo sapiens, UniProt Q16288, G623R); assay: Engineered Ba/F3 cell proliferation inhibition (MTS), ETV6-TRKC-G623R; conditions: 72 h
T4 construct: fused on or other part: P41212 (Transcription factor ETV6)
Summary of the method: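 Ba/F3 cells stably expressing the TRK fusion, grown with puromycin, were plated 4 h then treated 72 h at 37 °C with compound 1.5–10000 nM final. Proliferation measured by MTS (2 h), absorbance at 490 nm with 650 nm reference; IC50 derived by curve fit.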

T3 sequence (P04629 510-796 G595R limits assumed): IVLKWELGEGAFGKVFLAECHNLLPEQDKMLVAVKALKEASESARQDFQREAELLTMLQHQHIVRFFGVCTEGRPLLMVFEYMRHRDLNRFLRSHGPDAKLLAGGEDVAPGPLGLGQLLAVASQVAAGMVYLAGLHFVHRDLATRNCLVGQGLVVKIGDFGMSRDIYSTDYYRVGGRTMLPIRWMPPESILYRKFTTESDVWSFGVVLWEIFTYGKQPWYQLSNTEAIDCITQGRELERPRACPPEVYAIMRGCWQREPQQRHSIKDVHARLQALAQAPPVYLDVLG
T2 sequence (P04629 510-796 limits assumed): as the sequence (P04629 510-796 G595R limits assumed) above, with R86G counted along it
T1 sequence (Q16288 whole entry, the tested form may be a part): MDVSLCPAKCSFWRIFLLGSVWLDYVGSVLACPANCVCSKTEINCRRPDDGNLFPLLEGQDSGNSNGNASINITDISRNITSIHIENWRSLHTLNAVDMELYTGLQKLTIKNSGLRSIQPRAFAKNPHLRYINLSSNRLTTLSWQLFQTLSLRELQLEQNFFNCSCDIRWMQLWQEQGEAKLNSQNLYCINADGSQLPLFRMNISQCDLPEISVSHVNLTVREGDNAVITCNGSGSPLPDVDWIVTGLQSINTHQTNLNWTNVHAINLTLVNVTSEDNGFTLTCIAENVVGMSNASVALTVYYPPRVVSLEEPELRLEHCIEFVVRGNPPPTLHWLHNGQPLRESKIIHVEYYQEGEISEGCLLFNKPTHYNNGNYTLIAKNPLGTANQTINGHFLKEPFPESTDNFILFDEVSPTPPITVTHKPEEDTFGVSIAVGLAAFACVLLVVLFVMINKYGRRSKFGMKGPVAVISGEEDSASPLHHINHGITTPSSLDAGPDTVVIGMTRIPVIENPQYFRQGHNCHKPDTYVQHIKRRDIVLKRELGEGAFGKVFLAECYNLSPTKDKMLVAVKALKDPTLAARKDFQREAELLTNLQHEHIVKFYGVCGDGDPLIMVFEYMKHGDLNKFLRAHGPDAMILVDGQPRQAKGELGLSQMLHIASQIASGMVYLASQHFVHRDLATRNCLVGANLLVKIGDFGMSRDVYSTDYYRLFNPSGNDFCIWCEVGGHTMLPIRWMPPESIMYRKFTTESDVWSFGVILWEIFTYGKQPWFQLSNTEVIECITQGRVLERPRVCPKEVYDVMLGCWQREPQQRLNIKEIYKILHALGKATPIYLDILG
T4 sequence (Q16288 whole entry G623R, the tested form may be a part): as the sequence (Q16288 whole entry, the tested form may be a part) above, with G623R counted along it

SMILES	IC50 (KM12 cells) [nM]	IC50 (ETV6-TRKC) [nM]	IC50 (TPM3-TRKA) [nM]	IC50 (TPM3-TRKA-G595R) [nM]	IC50 (ETV6-TRKC-G623R) [nM]
C[C@H]1CNC(=O)c2cnn3ccc(nc23)N2CCC3CC32c2cc(F)ccc2O1 (stereo partly drawn) [Example 3, (1^3E,1^4E,5S)-3^5-fluoro-5-methyl-4-oxa-2^2,7-diaza-1(5,3)-pyrazolo[1,5-a]pyrimidina-2(2,1)-bicyclo[3.1.0]hexana-3(1,2)-benzenacyclooctaphan-8-one]	1	1	–	–	–
C[C@@H]1COc2ncc(F)cc2C2(CC2)Nc2ccn3ncc(c3n2)C(=O)N1 [Example 8, (R,3′E,4′E)-5′-fluoro-7′-methylspiro[cyclopropane-1,3′-5-oxa-2,8-diaza-1(5,3)-pyrazolo[1,5-a]pyrimidina-4(3,2)-pyridinacyclononaphan]-9′-one]	4	1	3	67	39
C[C@@H]1COc2ccc(F)cc2[C@@]23C[C@@H]2CCN3c2ccn3ncc(c3n2)C(=O)N1 [Example 15, (1^3E,1^4E,2^1R,2^5S,6R)-3^5-fluoro-6-methyl-4-oxa-2^2,7-diaza-1(5,3)-pyrazolo[1,5-a]pyrimidina-2(2,1)-bicyclo[3.1.0]hexana-3(1,2)-benzenacyclooctaphan-8-one]	1	1	1	1	1
O=C1NCCOc2ccc(F)cc2[C@@]23C[C@@H]2CCN3c2ccn3ncc1c3n2 [Example 16, (1^3E,1^4E,2^1R,2^5S)-3^5-fluoro-4-oxa-2^2,7-diaza-1(5,3)-pyrazolo[1,5-a]pyrimidina-2(2,1)-bicyclo[3.1.0]Hexana-3(1,2)-benzeneacyclooctaphan-8-one]	1	1	1	1	2
C[C@@H]1COc2ncc(F)cc2[C@@]23C[C@@H]2CCN3c2ccc3ncc(n3n2)C(=O)N1 [Example 18]	1	1	1	1	2
C[C@@H]1COc2ncc(F)cc2[C@@]23C[C@@H]2CCN3c2ccn3ncc(c3n2)C(=O)N1 [Example 19, (1^3E,1^4E,2^1R,2^5S,6R)-3^5-fluoro-6-methyl-4-oxa-2^2,7-diaza-1(5,3)pyrazolo[1,5-a]pyrimidina-3(3,2)-pyridina-2(2,1)-bicyclo[3.1.0]hexanacyclooctaphan-8-one]	1	1	1	1	1
C[C@@H]1CCc2ncc(F)cc2[C@@]23C[C@@H]2CCN3c2ccn3ncc(c3n2)C(=O)N1 [Example 20, (1^3E,1^4E,2^1R,2^5S,6R)-3^5-fluoro-6-methyl-2^2,7-diaza-1(5,3)-pyrazolo[1,5-a]pyrimidina-3(3,2)-pyridina-2(2,1)-bicyclo[3.1.0]hexanacyclooctaphan-8-one]	1	1	1	1	1
C[C@H]1CNC(=O)c2cnn3ccc(nc23)N2CC[C@H]3C[C@]32c2cc(F)ccc2O1 [Example 22, (1^3E,1^4E,2^1R,2^5S,5S)-3^5-fluoro-5-methyl-4-oxa-2^2,7-diaza-1(5,3)-pyrazolo[1,5-a]pyrimidina-2(2,1)-bicyclo[3.1.10]hexana-3(1,2)-benzenacyclooctaphan-8-one]	1	1	1	1	1
C[C@H]1COc2ccc(F)cc2[C@@]23C[C@@H]2CCN3c2ccn3ncc(c3n2)C(=O)N1 [Example 24, (1^3E,1^4E,2^1R,2^5S,6S)-35-fluoro-6-methyl-4-oxa-2^2,7-diaza-1(5,3)-pyrazolo[1,5-a]pyrimidina-2(2,1)-bicyclo[3.1.0]hexana-3(1,2)-benzenacyclooctaphan-8-one]	1	1	1	1	4
C[C@@H]1CCc2ccc(F)cc2[C@@]23C[C@@H]2CCN3c2ccn3ncc(c3n2)C(=O)N1 [Example 27, (1^3E,1^4E,2^1R,2^5S,6R)-3^5-fluoro-6-methyl-2^2,7-diaza-1(5,3)-pyrazolo[1,5-a]pyrimidina-2(2,1)-bicyclo[3.1.0]hexana-3(1,2)-benzeneacyclooctaphan-8-one]	1	1	1	1	1
C[C@@H]1CCc2ncc(F)cc2[C@@]23C[C@@H]2CCN3c2ccc3ncc(n3n2)C(=O)N1 [Example 29, (2^1R,2^5S,6R,E)-3^5-fluoro-6-methyl-2^2,7-diaza-1(6,3)-imidazo[1,2-b]pyridazina-3(3,2)-pyridina-2(2,1)-bicyclo[3.1.0]hexanacyclooctaphan-8-one]	1	1	1	1	1
C[C@H]1CCc2ccc(F)cc2[C@@]23C[C@@H]2CCN3c2ccn3ncc(c3n2)C(=O)N1 [Example 31, (1^3E,1^4E,2^1R,2^5S,6S)-35-fluoro-6-methyl-2^2,7-diaza-1(5,3)-pyrazolo[1,5-a]pyrimidina-2(2,1)-bicyclo[3.1.0]hexana-3(1,2)-benzenecyclo-octaphan-8-one]	1	1	1	1	3
C[C@@H]1COc2ccc(F)cc2[C@@]23C[C@@H]2CCN3c2ccc3ncc(n3n2)C(=O)N1 [Example 36, (2^1R,2^5S,6R,E)-3^5-fluoro-6-methyl-4-oxa-2^2,7-diaza-1(6,3)-imidazo[1,2-b]pyridazina-2(2,1)-bicyclo[3.1.0]hexana-3(1,2)-benzenacyclooctaphan-8-one]	6	3	2	17	13
O=C1NCCOc2ncc(F)cc2C2(CC2)Nc2ccn3ncc1c3n2 [Example 44, (3′E,4′E)-5′-fluorospiro[cyclopropane-1,3′-5-oxa-2,8-diaza-1(5,3)-pyrazolo[1,5-a]pyrimidina-4(3,2)-pyridinacyclononaphan]-9′-one]	35	26	18	–	–
CN1c2ccn3ncc(c3n2)C(=O)NCCOc2ncc(F)cc2C12CC2 [Example 50, (3′E,4′E)-5′-fluoro-2′-methylspiro-[cyclopropane-1,3′-5-oxa-2,8-diaza-1(5,3)-pyrazolo[1,5-a]pyrimidina-4(3,2)-pyridina-cyclononaphan]-9′-one]	10	2	11	–	68
CCN1c2ccn3ncc(c3n2)C(=O)NCCOc2ncc(F)cc2C12CC2 [Example 66, (3′E,4′E)-2′-ethyl-5′-fluorospiro-[cyclopropane-1,3′-5-oxa-2,8-diaza-1(5,3)-pyrazolo[1,5-a]pyrimidina-4(3,2)-pyridinacyclononaphan]-9′-one]	34	15	60	–	–
CN1c2ccn3ncc(c3n2)C(=O)NCCCOc2ncc(F)cc2C12CC2 [Example 68, (3′E,4′E)-5′-fluoro-2′-methylspiro-[cyclopropane-1,3′-5-oxa-2,9-diaza-1(5,3)-pyrazolo[1,5-a]pyrimidina-4(3,2)-pyridina-cyclodecaphan]-10′-one]	10	–	8	53	33
